The results in this text go back to patent US20100056508A1, “AMINE DERIVATIVES AND THEIR USE IN BETA-2-ADRENORECEPTOR MEDIATED DISEASES” (ASTRAZENECA AB, priority 2006, published 2010).

Counter-ions that a name gives are not always drawn.

The assay concerns the target T1, recombinant human α1D receptor (Homo sapiens, UniProt P25100).
T1 construct: expressed in transfected cells; host or cells: human embryonic kidney 293 cells (HEK93 [sic]), membranes
T1 sequence (P25100 1-572): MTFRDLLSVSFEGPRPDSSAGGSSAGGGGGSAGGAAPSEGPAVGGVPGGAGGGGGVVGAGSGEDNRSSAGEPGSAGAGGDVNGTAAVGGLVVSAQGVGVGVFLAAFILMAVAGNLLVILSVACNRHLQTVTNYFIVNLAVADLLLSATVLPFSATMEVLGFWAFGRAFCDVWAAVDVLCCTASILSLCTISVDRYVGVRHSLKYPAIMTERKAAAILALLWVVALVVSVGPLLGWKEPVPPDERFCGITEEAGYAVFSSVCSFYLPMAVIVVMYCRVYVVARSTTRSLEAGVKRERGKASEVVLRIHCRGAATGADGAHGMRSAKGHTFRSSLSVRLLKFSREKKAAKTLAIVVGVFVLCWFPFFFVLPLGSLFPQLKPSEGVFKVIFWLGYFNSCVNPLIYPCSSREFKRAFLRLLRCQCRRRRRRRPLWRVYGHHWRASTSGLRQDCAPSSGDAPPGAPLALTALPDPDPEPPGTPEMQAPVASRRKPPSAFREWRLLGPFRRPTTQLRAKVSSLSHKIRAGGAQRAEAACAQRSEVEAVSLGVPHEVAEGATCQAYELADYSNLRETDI
Kind of assay: Adrenergic α1D selectivity assay, [3H]-prazosin binding to membranes. The note with it: inhibition of [3H]-prazosin binding, HEK cell membranes, read-out: α1 bind pIC50 (converted). The gist of the method: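 Competition binding on HEK293 membranes with recombinant human α1D receptor, 0.3 nM [3H]-prazosin, 50 mM HEPES/1 mM EDTA pH 7.4, 2 h at room temperature; filtration and scintillation counting. Non-specific binding defined with 10 μM BMY7378. pIC50 from four-parameter logistic fit of specific-binding inhibition.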
For the compound `O=C1COc2c(CCNCCN(C(=O)CCNCCc3cc(F)cc(F)c3)C3CCCCCC3)ccc(O)c2N1` [Example 65, N-Cycloheptyl-3-(3,5-difluorophenethylamino)-N-(2-(2-(5-hydroxy-3-oxo-3,4-dihydro-2H-benzo[b][1,4]oxazin-8-yl)ethylamino)ethyl)propanamide bis(trifluoroacetate)], the IC50 is 398 nM.

On to `O=C(CCNCCc1cccc(Cl)c1)N(CCNCCc1ccc(O)c2[nH]c(=O)ccc12)C1CCCCCC1` [Example 3, 3-(3-Chlorophenethylamino)-N-cycloheptyl-N-(2-(2-(8-hydroxy-2-oxo-1,2-dihydroquinolin-5-yl)ethylamino)ethyl)propanamide bis(trifluoroacetate)], for which the IC50 is 79.4 nM.

`O=C(CCNCCc1cccc(Cl)c1)N(CCNCCc1ccc(O)c2[nH]c(=O)ccc12)C1CCCCC1` [Example 13, 3-(3-Chlorophenethylamino)-N-cyclohexyl-N-(2-(2-(8-hydroxy-2-oxo-1,2-dihydroquinolin-5-yl)ethylamino)ethyl)propanamide bis(trifluoroacetate)]: the IC50 is 79.4 nM.

As to `O=C1COc2c(CCNCCN(C(=O)CCNCCc3cc(F)ccc3F)C3CCCCCC3)ccc(O)c2N1` [Example 64, N-Cycloheptyl-3-(2,5-difluorophenethylamino)-N-(2-(2-(5-hydroxy-3-oxo-3,4-dihydro-2H-benzo[b][1,4]oxazin-8-yl)ethylamino)ethyl)propanamide bis(trifluoroacetate)], the IC50 was 63.1 nM.

Consider `O=C(CCNCCc1cccc(F)c1F)N(CCNCCc1ccc(O)c2[nH]c(=O)ccc12)C1CCCCC1` [Example 18, N-Cyclohexyl-3-(3-difluorophenethylamino)-N-(2-(2-(8-hydroxy-2-oxo-1,2-dihydroquinolin-5-yl)ethylamino)ethyl)propanamide bis(trifluoroacetate)], for which the IC50 is 398 nM.

`O=C1COc2c(CCNCCN(C(=O)CCNCCc3cc(F)cc(Cl)c3)C3CCCCC3)ccc(O)c2N1` [Example 41, 3-(3-Chloro-5-fluorophenethylamino)-N-cyclohexyl-N-(2-(2-(5-hydroxy-3-oxo-3,4-dihydro-2H-benzo[b][1,4]oxazin-8-yl)ethylamino)ethyl)propanamide (trifluoroacetate)]: the IC50 is 251 nM.

As for `O=C1COc2c(CCNCCN(C(=O)CCNCCc3ccc(Cl)cc3Cl)C3CCCCC3)ccc(O)c2N1` [Example 31, N-Cyclohexyl-3-(2,4-dichlorophenethylamino)-N-(2-(2-(5-hydroxy-3-oxo-3,4-dihydro-2H-benzo[b][1,4]oxazin-8-yl)ethylamino)ethyl)propanamide bis(trifluoroacetate)], the IC50 was 158 nM.

Take `O=C1COc2c(CCNCCN(C(=O)CCNCCc3cccc(Cl)c3)C3CCCCC3)ccc(O)c2N1` [Example 27, 3-(3-Chlorophenethylamino)-N-cyclohexyl-N-(2-(2-(5-hydroxy-3-oxo-3,4-dihydro-2H-benzo[b][1,4]oxazin-8-yl)ethylamino)ethyl)propanamide bis(trifluoroacetate)]: the IC50 was 126 nM.

For `O=C1COc2c(CCNCCN(C(=O)CCNCCc3ccc(F)c(F)c3)C3CCCCCC3)ccc(O)c2N1` [Example 67, N-Cycloheptyl-3-(3,4-difluorophenethylamino)-N-(2-(2-(5-hydroxy-3-oxo-3,4-dihydro-2H-benzo[b][1,4]oxazin-8-yl)ethylamino)ethyl)propanamide bis(trifluoroacetate)], the IC50 is 200 nM.

For `Cc1cc(CCNCCC(=O)N(CCNCCc2ccc(O)c3c2OCC(=O)N3)C2CCCCCC2)ccc1F` [Example 62, N-Cycloheptyl-3-(4-fluoro-3-methylphenethylamino)-N-(2-(2-(5-hydroxy-3-oxo-3,4-dihydro-2H-benzo[b][1,4]oxazin-8-yl)ethylamino)ethyl)propanamide bis(trifluoroacetate)], the IC50 was 39.8 nM.

Turning to `O=C1COc2c(CCNCCN(C(=O)CCNCCc3cc(F)ccc3F)C3CCCCC3)ccc(O)c2N1` [Example 38, N-Cyclohexyl-3-(2,5-difluorophenethylamino)-N-(2-(2-(5-hydroxy-3-oxo-3,4-dihydro-2H-benzo[b][1,4]oxazin-8-yl)ethylamino)ethyl)propanamide bis(trifluoroacetate)], the IC50 was 158 nM.

For `O=C1COc2c(CCNCCN(C(=O)CCNCCc3ccccc3)C3CCCCC3)ccc(O)c2N1` [Example 23, N-Cyclohexyl-N-(2-(2-(5-hydroxy-3-oxo-3,4-dihydro-2H-benzo[b][1,4]oxazin-8-yl)ethylamino)ethyl)-3-(phenethylamino)propanamide bis(trifluoroacetate)], the IC50 is 126 nM.

On to `CC(C)[C@@H](C)N(CCNCCc1ccc(O)c2c1OCC(=O)N2)C(=O)CCNCCc1ccc(Cl)c(Cl)c1` [Example 59, (R)-3-(3,4-Dichlorophenethylamino)-N-(2-(2-(5-hydroxy-3-oxo-3,4-dihydro-2H-benzo[b][1,4]oxazin-8-yl)ethylamino)ethyl)-N-(3-methylbutan-2-yl)propanamide dihydrochloride], for which the IC50 is 200 nM.

Take `O=C(CCNCCc1cc(F)ccc1F)N(CCNCCc1ccc(O)c2[nH]c(=O)ccc12)C1CCCCC1` [Example 17, N-Cyclohexyl-3-(2,5-difluorophenethylamino)-N-(2-(2-(8-hydroxy-2-oxo-1,2-dihydroquinolin-5-yl)ethylamino)ethyl)propanamide bis(trifluoroacetate)]: the IC50 was 251 nM.

For the compound `O=C1COc2c(CCNCCN(C(=O)CCOCCc3ccccc3)C3CCCCC3)ccc(O)c2N1` [Example 70, N-Cyclohexyl-N-(2-(2-(5-hydroxy-3-oxo-3,4-dihydro-2H-benzo[b][1,4]oxazin-8-yl)ethylamino)ethyl)-3-phenethoxypropanamide trifluoroacetate], the IC50 is 1580 nM.

`O=C(CCNCCc1ccc(Cl)cc1)N(CCNCCc1ccc(O)c2[nH]c(=O)ccc12)C1CCCCCC1` [Example 4, 3-(4-Chlorophenethylamino)-N-cycloheptyl-N-(2-(2-(8-hydroxy-2-oxo-1,2-dihydroquinolin-5-yl)ethylamino)ethyl)propanamide bis(trifluoroacetate)]: the IC50 is 79.4 nM.

On to `O=C1COc2c(CCNCCN(C(=O)CCNCCc3cccc(Cl)c3F)C3CCCCC3)ccc(O)c2N1` [Example 39, 3-(3-Chloro-2-fluorophenethylamino)-N-cyclohexyl-N-(2-(2-(5-hydroxy-3-oxo-3,4-dihydro-2H-benzo[b][1,4]oxazin-8-yl)ethylamino)ethyl)propanamide bis(trifluoroacetate)], for which the IC50 is 501 nM.

Turning to `O=C1COc2c(CCNCCN(C(=O)CCNCCc3ccc(Cl)c(Cl)c3)C3CCCCCC3)ccc(O)c2N1` [Example 26, N-Cycloheptyl-3-(3,4-dichlorophenethylamino)-N-(2-(2-(5-hydroxy-3-oxo-3,4-dihydro-2H-benzo[b][1,4]oxazin-8-yl)ethylamino)ethyl)propanamide bis(trifluoroacetate)], the IC50 is 79.4 nM.

On to `O=C(CCNCCc1cc(F)cc(F)c1)N(CCNCCc1ccc(O)c2[nH]c(=O)ccc12)C1CCCCC1` [Example 15, N-Cyclohexyl-3-(3,5-difluorophenethylamino)-N-(2-(2-(8-hydroxy-2-oxo-1,2-dihydroquinolin-5-yl)ethylamino)ethyl)propanamide bis(trifluoroacetate)], for which the IC50 is 501 nM.

For the compound `CCCC[C@@H](C)N(CCNCCc1ccc(O)c2c1OCC(=O)N2)C(=O)CCNCCc1ccc(F)c(Cl)c1` [Example 48, (R)-3-(3-Chloro-4-fluorophenethylamino)-N-(hexan-2-yl)-N-(2-(2-(5-hydroxy-3-oxo-3,4-dihydro-2H-benzo[b][1,4]oxazin-8-yl)ethylamino)ethyl)propanamide bis(trifluoroacetate)], the IC50 was 126 nM.

As for `O=C1COc2c(CCNCCN(C(=O)CCNCCc3ccc(Cl)cc3)C3CCCCC3)ccc(O)c2N1` [Example 32, 3-(4-Chlorophenethylamino)-N-cyclohexyl-N-(2-(2-(5-hydroxy-3-oxo-3,4-dihydro-2H-benzo[b][1,4]oxazin-8-yl)ethylamino)ethyl)propanamide bis(trifluoroacetate)], the IC50 was 251 nM.

With `CCCC[C@@H](C)N(CCNCCc1ccc(O)c2c1OCC(=O)N2)C(=O)CCNCCc1cc(F)cc(Cl)c1` [Example 50, (R)-3-(3-Chloro-5-fluorophenethylamino)-N-(hexan-2-yl)-N-(2-(2-(5-hydroxy-3-oxo-3,4-dihydro-2H-benzo[b][1,4]oxazin-8-yl)ethylamino)ethyl)propanamide bis(trifluoroacetate)], the IC50 was 200 nM.

Take `CCCC[C@@H](C)N(CCNCCc1ccc(O)c2c1OCC(=O)N2)C(=O)CCNCCc1cc(C)ccc1F` [Example 56, (R)-3-(2-Fluoro-5-methylphenethylamino)-N-(hexan-2-yl)-N-(2-(2-(5-hydroxy-3-oxo-3,4-dihydro-2H-benzo[b][1,4]oxazin-8-yl)ethylamino)ethyl)propanamide bis(trifluoroacetate)]: the IC50 is 31.6 nM.
